According to publication PMC4995043, “A Diverse Family of Host-Defense Peptides (Piscidins) Exhibit Specialized Anti-Bacterial and Anti-Protozoal Activities in Fishes” (PLoS ONE, 2016):
≈ marks a conversion by molar mass, not a printed value. Where two headings read alike, the source gives them in different places. Where a SMILES comes first, the peptide text is derived from it.

How the values were obtained:
Streptococcus iniae = format: cell-based; conditions: 48 h; for MIC: S. iniae stock 00–1425, Gram +, fish pathogen, TSB + 1.5% NaCl, OD630, MIC = lowest concentration reducing growth by more than 50%, 3 wells, 200 to 0.39 μg/mL tested
Excerpt: (§1) Fish bacterial pathogens, Streptococcus iniae (stock 00–1425; isolated from rainbow trout, Oncorhynchus mykiss), Lactococcus garvieae (stock 00–1422; multiple antibiotic-resistant strain), Vibrio anguillarum (stock 91–3057; ATCC 19264), and Aeromonas salmonicida (stock 91–3053; ATCC® 7965™), and human bacterial pathogens, Enterococcus faecalis (stock 00–1403; ATCC 29212), Staphylococcus aureus (ATCC 29213), Shigella flexneri (stock 00–1402; ATCC 12022), and Escherichia coli (stock 00–1405; ATCC 25922), were cultured from frozen stocks stored in glycerol at -80°C. L. garvieae, A. salmonicida, E. faecalis, S. aureus, and S. flexneri were grown in Mueller Hinton Broth (MHB); the MHB was supplemented with 1% NaCl for L. garvieae. S. iniae, and V. anguillarum were grown in Tryptic Soy Broth (TSB) supplemented with 1.5% NaCl and E. coli was grown in Luria-Bertani Broth (LB). The fish and human pathogens were grown at 25°C and 37°C, respectively, while shaking at 200 rpm for 18 h except for S. iniae, which was grown for 48 h. The cultures were passaged at least three times each when in log phase to ensure that they had acclimated to culture.
(§2) The minimum inhibitory concentrations (MIC) and minimum bactericidal concentrations (MBC) were determined as previously described following standard methods recommended by the […] for MIC90 and MBC determinations of clinical isolates with some modifications. Overnight bacterial cultures were diluted to 80–88% transmittance in their appropriate medium. The cultures were then diluted again to 1:200 and 100 μL was pipetted into each of 3 wells in 11 columns of a 96-well plate (Corning, Inc., Tewksbury, MA), the 12th column loaded with media without bacteria as a sterility control and blank.
(§3) The synthetic piscidin peptides (piscidins 1, 4, and 7 from striped bass; piscidins 1, 5, and 6 from white bass; and piscidin 3 corresponding to both striped bass and white bass) were prepared by diluting the 4 mg/mL stocks to 2 mg/mL in 0.2% bovine serum albumin (BSA) + 0.01% acetic acid. These were then serially diluted to a concentration of 3.9 μg/mL in the same diluent. The piscidin dilutions were added to the first 10 columns of the 96-well plate containing bacteria, […] was loaded with diluent only to act as a positive growth control. The final concentrations tested were 200 μg/mL to 0.39 μg/mL. The plates were incubated with shaking at 200 rpm for 18 h, except for S. iniae, which was incubated for 48 h. Fish pathogens and human pathogens were incubated at 25°C and 37°C, respectively. […] The MIC was taken as the lowest concentration of piscidin that reduced growth when compared to the growth control by more than 50%. To determine the MBC, 20 μL of the media from the wells of the three lowest piscidin concentrations that had no visible growth of bacteria were plated onto the appropriate media plates and incubated as described above. Colonies were counted to determine whether growth was equal to or less than 0.1% of the colony forming units (CFUs) in the original inoculum. The MBC was defined as the lowest concentration of piscidin that killed at least 99.9% of the CFUs in the original inoculum.

Vibrio anguillarum = format: cell-based; conditions: 18 h
Excerpt: as §1, §2, §3

Lactococcus garvieae = format: cell-based; conditions: 18 h
Excerpt: as §1, §2, §3

Enterococcus faecalis = format: cell-based; conditions: 18 h
Excerpt: as §1, §2, §3

Aeromonas salmonicida = format: cell-based; conditions: 18 h
Excerpt: as §1, §2, §3

E. coli = format: cell-based, Escherichia coli; conditions: 18 h
Excerpt: as §1, §2, §3

Shigella flexneri = format: cell-based; conditions: S. flexneri ATCC 12022; kills at least 99.9% of CFUs of original inoculum; 37°C, 18 h
Excerpt: as §1, §2, §3

Staphylococcus aureus = format: cell-based; conditions: 37°C, 18 h; for MIC: S. aureus ATCC 29213, Gram +, human pathogen, MHB, OD630, growth reduced by more than 50%; for MBC: S. aureus ATCC 29213, kills at least 99.9% of CFUs of original inoculum
Excerpt: as §1, §2, §3

Tetrahymena pyriformis = conditions: piscidin 1 not among peptides tested, previously observed results, cited from earlier work; for PC100 (100% parasiticidal concentration): lowest concentration that killed all T. pyriformis
Excerpt: Table 4 Minimum parasiticidal concentrations (PCmin) and 100% parasiticidal concentrations (PC100) of various synthetic hybrid striped bass piscidins against the ciliated protozoan, Tetrahymena pyriformis. | column: PCmin (uM) / SB P1; PC100 (uM) / SB P1; PC100 (uM) / WB P1

[1] = S. iniae stock 00–1425, lowest concentration killing at least 99.9% of CFUs of original inoculum, plated from MIC wells, 25°C
[2] = L. garvieae stock 00–1422, kills at least 99.9% of CFUs of original inoculum, 25°C
[3] = E. faecalis ATCC 29212, kills at least 99.9% of CFUs of original inoculum, 37°C

SMILES	MBC (Vibrio anguillarum) [µM]	MIC (Enterococcus faecalis) [µM]	MBC (Aeromonas salmonicida) [µM]	MIC (Aeromonas salmonicida) [µM]	MBC (E. coli) [µM]	MIC (E. coli) [µM]	MIC (Streptococcus iniae; 25°C) [µM]	MBC (Streptococcus iniae; [1]) [µM]	MBC (Lactococcus garvieae; [2]) [µM]	MBC (Enterococcus faecalis; [3]) [µM]	MIC (Staphylococcus aureus) [µM]	MBC (Staphylococcus aureus) [µM]	PC100 (100% parasiticidal concentration) (Tetrahymena pyriformis) [µM]	further results
CC[C@H](C)[C@H](NC(=O)CNC(=O)[C@H](CCCNC(=N)N)NC(=O)[C@H](Cc1ccccc1)NC(=O)[C@@H](NC(=O)[C@H](Cc1c[nH]cn1)NC(=O)[C@H](Cc1c[nH]cn1)NC(=O)[C@@H](NC(=O)[C@@H](N)Cc1ccccc1)[C@@H](C)CC)[C@@H](C)CC)C(=O)N[C@H](C(=O)N[C@@H](Cc1c[nH]cn1)C(=O)N[C@@H](C)C(=O)NCC(=O)N[C@@H](CCCNC(=N)N)C(=O)N[C@@H](CO)C(=O)N[C@H](C(=O)NCC(=O)N[C@@H](CCCNC(=N)N)C(=O)N[C@@H](Cc1ccccc1)C(=O)N[C@@H](CC(C)C)C(=O)N[C@H](C(=O)NCC(=O)O)[C@@H](C)O)[C@@H](C)CC)C(C)C [SB/WB P3] (H-FIHHIFRGIVHAGRSIGRFLTG-OH; N-terminus and C-terminus assumed)	20.06 (≈ 50 µg/mL)	1.26 (≈ 3.14 µg/mL)	>80.26	>80.26	80.26 (≈ 200 µg/mL)	80.26 (≈ 200 µg/mL)	–	–	–	–	–	–	–	MBC (Streptococcus iniae): 2.51 µM (≈ 6.25 µg/mL); MBC (Lactococcus garvieae): 5.02 µM (≈ 12.5 µg/mL); MBC (Enterococcus faecalis): 10.03 µM (≈ 25 µg/mL)
CC[C@H](C)[C@H](NC(=O)CNC(=O)[C@H](CCCNC(=N)N)NC(=O)[C@H](Cc1ccccc1)NC(=O)[C@@H](NC(=O)[C@H](Cc1c[nH]cn1)NC(=O)[C@H](Cc1c[nH]cn1)NC(=O)[C@H](Cc1ccccc1)NC(=O)[C@@H](N)Cc1ccccc1)[C@@H](C)CC)C(=O)N[C@H](C(=O)N[C@@H](Cc1c[nH]cn1)C(=O)N[C@H](C(=O)NCC(=O)N[C@@H](CCCCN)C(=O)N[C@H](C(=O)N[C@H](C(=O)N[C@@H](Cc1c[nH]cn1)C(=O)N[C@@H](CCCNC(=N)N)C(=O)N[C@@H](CC(C)C)C(=O)N[C@H](C(=O)N[C@H](C(=O)NCC(=O)O)[C@@H](C)O)C(C)C)[C@@H](C)CC)[C@@H](C)O)C(C)C)C(C)C [SB P1] (H-FFHHIFRGIVHVGKTIHRLVTG-OH)	–	–	–	–	–	–	1.22	1.22 (≈ 3.14 µg/mL)	1.22 (≈ 3.14 µg/mL)	2.43 (≈ 6.25 µg/mL)	2.43 (≈ 6.25 µg/mL)	2.43 (≈ 6.25 µg/mL)	5	MIC (Vibrio anguillarum; V. anguillarum ATCC 19264, Gram -, fish pathogen, TSB + 1.5% NaCl, 25°C, OD630, growth reduced by more than 50%): 2.43 to 4.86 µM; MBC (Vibrio anguillarum; V. anguillarum ATCC 19264, kills at least 99.9% of CFUs of original inoculum, 25°C): 9.72 µM (≈ 25 µg/mL); MBC (Shigella flexneri): 4.86 µM (≈ 12.5 µg/mL); MIC (Lactococcus garvieae; L. garvieae stock 00–1422 (multiple antibiotic-resistant), Gram +, fish pathogen, MHB + 1% NaCl, 25°C, OD630, growth reduced by more than 50%): 1.22 µM; MIC (Enterococcus faecalis; E. faecalis ATCC 29212, Gram +, human pathogen, MHB, 37°C, OD630, growth reduced by more than 50%): 1.22 µM (≈ 3.14 µg/mL); MIC (Aeromonas salmonicida; A. salmonicida ATCC 7965, Gram -, fish pathogen, MHB, 25°C, OD630, growth reduced by more than 50%): >77.76 µM; MIC (E. coli; E. coli ATCC 25922, Gram -, human pathogen, LB, 37°C, OD630, growth reduced by more than 50%): 4.86 µM (≈ 12.5 µg/mL); PCmin (minimum parasiticidal concentration) (Tetrahymena pyriformis; lowest concentration that killed at least one T. pyriformis): 2.5 µM
CC[C@H](C)[C@H](NC(=O)CNC(=O)[C@H](CCCNC(=N)N)NC(=O)[C@H](Cc1ccccc1)NC(=O)[C@@H](NC(=O)[C@H](Cc1c[nH]cn1)NC(=O)[C@H](Cc1c[nH]cn1)NC(=O)[C@H](Cc1ccccc1)NC(=O)[C@@H](N)Cc1ccccc1)[C@@H](C)CC)C(=O)N[C@H](C(=O)N[C@@H](Cc1c[nH]cn1)C(=O)N[C@H](C(=O)NCC(=O)N[C@@H](CCCCN)C(=O)N[C@H](C(=O)N[C@H](C(=O)N[C@@H](Cc1c[nH]cn1)C(=O)N[C@@H](CCCCN)C(=O)N[C@@H](CC(C)C)C(=O)N[C@H](C(=O)N[C@H](C(=O)NCC(=O)O)[C@@H](C)O)C(C)C)[C@@H](C)CC)[C@@H](C)O)C(C)C)C(C)C [WB P1] (H-FFHHIFRGIVHVGKTIHKLVTG-OH; N-terminus and C-terminus assumed)	9.83 (≈ 25 µg/mL)	1.23 (≈ 3.13 µg/mL)	>78.61	>78.61	>78.61	4.91 (≈ 12.5 µg/mL)	2.46	2.46 (≈ 6.26 µg/mL)	2.46 (≈ 6.26 µg/mL)	2.46 (≈ 6.26 µg/mL)	2.46 (≈ 6.26 µg/mL)	2.46 (≈ 6.26 µg/mL)	2.48	–
